Measured values as given in patent US20230022032A1, “uPAR-TARGETED PHOTOTHERMAL OPTICAL PROBES FOR PHOTOTHERMAL THERAPY” (RIGSHOSPITALET, priority 2019, published 2023).
Entries after “also recorded” stand apart in the source; their conditions may differ.

Assays:
[1] = In vitro heating of solutions under NIR laser irradiation (FLIR thermal camera); type: physicochemical; conditions: NIR laser 2 W/cm^2; for maximum temperature in solution / temperature reached in solution: five minutes irradiation; for temperature reached in solution: 228 nmol; for maximum temperature of solution: irradiated for ten minutes
Procedure: The ability of ICG to generate high temperatures when irradiated with NIR light was measured in vitro. Different concentrations (228, 46, 23 and 12 nmol) of unconjugated ICG and ICG-Glu-Glu-AE105 in solution (0.2 g/ml (2-hydroxypropyl)-β-cyclodextrin in water and DMSO) were placed in a plastic cuvette under the laser beam. The laser was turned on for five minutes at 2 W/cm2 and the temperature measured with a thermal camera (FLIR T-440 camera), taking images every 30 seconds. The images were analyzed using the FLIR tools software.
In order to test the ability of ICG-Glu-Glu-AE105 to heat under NIR light, different concentrations of the compound in solution were placed in a plastic cuvette under a laser, at an intensity of 2 W/cm^2. The samples were then irradiated for ten minutes and the temperatures detected with a FLIR camera. For the highest concentration tested, 0.5 mg/ml, temperature increased fast in the first minutes and slower and in a more steady way after that, reaching a maximum temperature of 70.8±3° C. after ten minutes of irradiation. In contrast, lower concentrations reached their maximum peak fast; at five minutes for 0.1 mg/ml (62.7±1.6° C.), and around two to three minutes for 0.05 and 0.025 mg/ml (51.4±0.9 and 40.7±0.4° C. respectively). From that point, temperatures started to decrease most likely due to the irreversible degradation of ICG, which impedes heat generation (Wang et al., 2013).
Different concentrations of ICG in solution were irradiated as it was done for the conjugated dye. […] As expected, the maximum temperature was very similar to the one reached by 0.5 mg/ml of ICG-Glu-Glu-AE105, because a concentration of 0.5 mg/ml of ICG-Glu-Glu-AE105 corresponds to approximately 0.18 mg/ml of ICG alone. […] 0.05 mg/ml of ICG reached a maximum of 68.8±0.7° C. after seven minutes of irradiation, meanwhile 0.025 mg/ml of ICG peaked at three minutes at 50±0.2° C.
5 minutes irradiation trials were also made with reference to testing the ability of ICG-Glu-Glu-AE105 to heat under NIR light. See the set up with the compound in solution placed in a plastic cuvette under a laser beam (intensity 2 W/cm^2) in FIG. 1a. In this case the samples were irradiated for five minutes and the maximum temperatures were recorded with a FLIR camera. (FIG. 1b).
However, it was observed that the heat was mainly localized at the top of the sample and not evenly distributed throughout the solution. […] An important detail observed was the temperature decrease after reaching a certain peak, most likely due to the irreversible degradation of ICG, which impedes heat generation (Wang, Y.-G., Kim, H., Mun, S., Kim, D. & Choi, Y).

[2] = system: subcutaneous U-87 MG.luc2 tumors; test: In vivo photothermal therapy (PTT) in subcutaneous mouse model of human glioblastoma; set-up: species or system mice; conditions: for median survival: endpoint tumor 1000 mm^3; for highest temperature reached on tumor surface during PTT: 46 nmol injected four hours before PTT, 5 minutes NIR light at 2 W/cm^2
Procedure: The animal experiments were approved by the Danish Animal Welfare Council, Ministry of Justice. For the in vivo studies, U-87 MG.luc2 cells were cultured in Dulbecco's modified eagle medium supplemented with 10% fetal bovine serum and 1% penicillin-streptomycin (Thermo Fisher Scientific) at 37° C. and in 5% CO2. When cells reached 70% confluence, they were harvested and 2-3×10^6 cells in 100 μl of PBS were inoculated into the left flank of NMRI nude female mice (Janvier Labs, France). Animals were left to grow tumors until they reached 300 mm^3 (day −1). From then on, tumors were measured every other day with the use of a caliper, and tumor volume calculated through the formula: (length×width^2)*0.5. When tumors reached 1,000 mm^3, animals were euthanized.
When tumors reached 300 mm^3, mice were divided into 5 groups: ICG-Glu-Glu-AE105 group (mice injected with 46 nmol ICG-Glu-Glu-AE105 four hours before PTT, n=6); ICG group (mice injected with 46 nmol of unconjugated ICG four hours before PTT, n=4); Saline group (mice injected with saline four hours before PTT, n=4); sham group (mice injected with ICG-Glu-Glu-AE105 and no PTT, n=5) and a control group (no injection, no PTT, n=4). Animals were given analgesia (buprenorphin, 0.3 mg/ml) right before the laser treatment and every 6 to 8 hours until deemed necessary. For PTT, animals were anesthetized with sevoflurane as previously described and placed under the laser beam for five minutes at 2 W/cm^2. The tumors were swabbed with glycerol, an index-matching agent, prior to the laser treatment to facilitate light penetration (Deng et al. 2011, Vargas et al., 1999, Simon et al., 2019). The temperatures reached on the tumor surface were detected with a thermal camera, as described for the in vitro experiments.
Animals were bioluminescence-scanned a day before PTT, on PTT day and afterwards every other day until endpoints were reached, using IVIS Lumina XR and acquisition software Living Image (Caliper life Sciences, Hopkinton, Calif., USA). For these bioluminescence scans, luciferin was injected intraperitoneally ([…]) ten minutes before the scan. Animals were then anesthetized as described in the previous sections and placed in the prone position. The excitation filter was set to 710 nm and the emission filter was set on ICG.
The fluorescence scans were performed to detect ICG signal before and after PTT using the Fluobeam®800 NIR-camera as described for the accumulation study.
The Kaplan-Meier method was used to create the survival curves, and they were compared through the log-rank test. The maximum temperatures on tumor surface were compared using one-way ANOVA with Tukey's multiple comparisons test. The fluorescence emitted by ICG measured by the Fluobeam before and after PTT was compared using two-way ANOVA with Sidak's multiple comparisons test. The data was plotted in Prism7 and shown as mean±SEM.
After determining ideal dose and treatment schedule, different groups of mice were set up in order to test the ability of ICG-Glu-Glu-AE105 as a photothermal agent, capable of specifically ablating tumors in vivo. For this, mice were injected subcutaneously with U-87 MG.luc2 cells, a type of glioblastoma cells expressing luciferase, which allows for bioluminescence imaging when luciferin is injected. The bioluminescence signal, detected when the reactive luciferin was injected and oxidized by the enzyme luciferase, serves as a way to determine treatment success and follow tumor growth. […] The timeline for the experiments can be seen on FIG. 3. On baseline (day −1), mice underwent a pre-treatment bioluminescence scan. Following, on treatment day (day 0), mice were injected with either ICG-Glu-Glu-AE105, ICG alone, saline or not injected as it was the case for the control group. Approximately four hours after injection, all groups but sham and control were irradiated for 5 minutes with NIR light at 2 W/cm2, and the temperatures on tumor surface were measured with a FLIR camera. […]

[3] = system: U-87 MG.luc2 tumor tissue; test: Tumor response ex vivo: H&E staining and uPAR immunohistochemistry of tumors resected 2 days after PTT; type: in vivo, mice; conditions: n=2 per group
Procedure: Tumors were resected from n=2 mice per group two days after PTT. Tumors were fixated in formaldehyde overnight, and afterwards conserved in ethanol for their later embedding in paraffin. To perform the histology experiments, tumors were resected in 4 μm slices in a microtome (Thermo Scientific Microm HM355S). The tissue slides were left to dry for at least 1.5 hours, and then heated first at 40 and after at 60° C. Following, slides were submerged in HistoClear to achieve deparaffinization and rehydrated through a series of EtOH to water. For hematoxylin and eosin staining, the tissue slides were stained with hematoxylin for 5 minutes, rinsed and stained with eosin for 3 minutes.
For immunohistochemistry, the rehydrated tissue slides underwent heat-induced epitope retrieval (HIER) by covering the tissue slides with 250 mL citrate buffer (pH=6), and steaming them at 100° C. for 15 minutes. […]
Finally, tumors from mice receiving the different treatments (n=2) were resected at day 2 (after PTT) and H&E stained to confirm changes in tumor morphology due to treatment ex vivo (FIG. 7). […] Finally, macrophages were detected through CD68 staining to observe co-localization with uPAR signal, which could be noted, again, for all viable tumor regions.

[4] = 46 nmol four hours before PTT (5 minutes, 2 W/cm^2)

Row | Structure (SMILES) | maximum temperature in solution ([1]; 12 nmol) | maximum temperature in solution ([1]; 23 nmol) | temperature reached in solution [1] | maximum temperature of solution ([1]; 0.025 mg/ml in solution) [°C] | maximum temperature of solution ([1]; 0.05 mg/ml in solution) [°C] | maximum temperature of solution ([1]; 0.1 mg/ml in solution) [°C] | median survival [2, 4] [days] | highest temperature reached on tumor surface during PTT [2] | maximum temperature of solution ([1]; 0.5 mg/ml in solution) [°C] | tumor growth after PTT ([2]; 46 nmol four hours before PTT, caliper measurement, compared to all the other groups) | complete tumor disappearance after PTT ([2]; n=6, followed until 60 days after PTT) | bioluminescence signal after PTT ([2]; ratio FLUX (day X/day -1), versus all the other groups) | median survival ([2]; sham group: injected, no laser treatment) [days] | H&E staining of tumor tissue [3] | uPAR signal in tumor tissue (immunological staining) [3]
1 | CC1(C)C(/C=C/C=C/C=C/C=C2\N(CCCCS(=O)(=O)O)c3ccc4ccccc4c3C2(C)C)=[N+](CCCCS(=O)(=O)[O-])c2ccc3ccccc3c21 [ICG, indocyanine green] | around 38 °C | below 50 °C | around 80 °C | 50±0.2 | 68.8±0.7 | 71.4±1.1 | 10 | around 45 °C | – | – | – | – | – | – | –
2 | CC(C)C[C@H](NC(=O)[C@H](Cc1ccc(O)cc1)NC(=O)C(CCCNC(=N)N)NC(=O)C(CO)NC(=O)C(Cc1ccccc1)NC(=O)[C@H](CC1CCCCC1)NC(=O)C(CC(=O)O)NC(=O)C(CCC(=O)O)NC(=O)C(CCC(=O)O)NC(=O)CCCCCN1\C(=C/C=C/C=C/C=C/C2=[N+](CCCCS(=O)(=O)[O-])c3ccc4ccccc4c3C2(C)C)C(C)(C)c2c1ccc1ccccc21)C(=O)N[C@@H](Cc1c[nH]c2ccccc12)C(=O)N[C@@H](CO)C(=O)O (stereo partly drawn) [ICG-Glu-Glu-AE105] | – | – | around 80 °C | 40.7±0.4 | 51.4±0.9 | 62.7±1.6 | 13.5 | around 52 °C | 70.8±3 | delay in tumor growth | one mouse even experienced complete tumor disappearance | reduced signal | 8 | high degree of cell death; also recorded: tissue disruption and hemorrhage | decrease in uPAR signal
